Species: Rattus norvegicus
Assay: Open TG-GATES - Regimen: Single
Type: toxicity, organism-based, Sprague-Dawley
Design: regimen Single, gender Male, age 6 weeks
Conditions: in vivo, po, 300 mg/kg, route gavage, dose level Low; for APTT / Bas / Eos / Fbg / Hb / Ht / Lym / MCH / MCHC / MCV / Mono / Neu / PT / Plat / RBC / Ret / WBC: tissue Blood; for KIDNEY_L / KIDNEY_R / KIDNEY_TOTAL: tissue Kidney; for LIVER: tissue Liver; for A/G / ALP / ALT / AST / BUN / CRE / Ca / Cl / DBIL / GLC / IP / K / LDH / Na / PL / RALB / TBIL / TC / TG / TP / gamma-GTP: tissue Plasma

CCOc1ccc(NC(=O)CC(C)O)cc1 (configuration not stated) [BUCETIN]
TERMINAL_BW (3 h): 213.6 g
APTT (3 h): 15.8 s
Bas (3 h): 0%
Eos (3 h): 0.8%
Fbg (3 h): 292.8 mg/dL
Hb (3 h): 13 g/dL
Ht (3 h): 39%
Lym (3 h): 77.8%
MCH (3 h): 21.4 pg
MCHC (3 h): 33.3%
MCV (3 h): 64.3 fL
Mono (3 h): 2.6%
Neu (3 h): 18.2%
PT (3 h): 13.7 s
Plat (3 h): 117.1 x10_4/uL
RBC (3 h): 608.2 x10_4/ul
Ret (3 h): 8.5%
WBC (3 h): 68.4 x10_2/uL
KIDNEY_L (3 h): 1 g
KIDNEY_R (3 h): 1 g
KIDNEY_TOTAL (3 h): 1.9 g
LIVER (3 h): 9.6 g
A/G (3 h): 0.9
ALP (3 h): 1395.4 IU/L
ALT (3 h): 33.2 IU/L
AST (3 h): 66.8 IU/L
BUN (3 h): 9.4 mg/dL
CRE (3 h): 0.2 mg/dL
Ca (3 h): 10.7 mg/dL
Cl (3 h): 104.8 meq/L
DBIL (3 h): 0.026 mg/dL
GLC (3 h): 181 mg/dL
IP (3 h): 9.1 mg/dL
K (3 h): 4.2 meq/L
LDH (3 h): 73.8 IU/L
Na (3 h): 140.6 meq/L
PL (3 h): 155.2 mg/dL
RALB (3 h): 2.5 g/dL
TBIL (3 h): 0.052 mg/dL
TC (3 h): 84.4 mg/dL
TG (3 h): 78 mg/dL
TP (3 h): 5.4 g/dL
gamma-GTP (3 h): 1.2 IU/L
TERMINAL_BW (6 h): 209.9 g
APTT (6 h): 15.2 s
Bas (6 h): 0%
Eos (6 h): 1%
Fbg (6 h): 292.4 mg/dL
Hb (6 h): 13.4 g/dL
Ht (6 h): 40.3%
Lym (6 h): 77%
MCH (6 h): 20.7 pg
MCHC (6 h): 33.4%
MCV (6 h): 62 fL
Mono (6 h): 2.6%
Neu (6 h): 19%
PT (6 h): 13.6 s
Plat (6 h): 112.6 x10_4/uL
RBC (6 h): 649.8 x10_4/ul
Ret (6 h): 7.8%
WBC (6 h): 80.5 x10_2/uL
KIDNEY_L (6 h): 0.9 g
KIDNEY_R (6 h): 0.9 g
KIDNEY_TOTAL (6 h): 1.8 g
LIVER (6 h): 8.7 g
A/G (6 h): 0.9
ALP (6 h): 1309.2 IU/L
ALT (6 h): 29.8 IU/L
AST (6 h): 65.8 IU/L
BUN (6 h): 8 mg/dL
CRE (6 h): 0.2 mg/dL
Ca (6 h): 10.6 mg/dL
Cl (6 h): 105 meq/L
DBIL (6 h): 0.026 mg/dL
GLC (6 h): 186 mg/dL
IP (6 h): 10.5 mg/dL
K (6 h): 4.3 meq/L
LDH (6 h): 74.4 IU/L
Na (6 h): 141.8 meq/L
PL (6 h): 139.8 mg/dL
RALB (6 h): 2.5 g/dL
TBIL (6 h): 0.058 mg/dL
TC (6 h): 77 mg/dL
TG (6 h): 44.8 mg/dL
TP (6 h): 5.3 g/dL
gamma-GTP (6 h): 1.2 IU/L
TERMINAL_BW (9 h): 206.6 g
APTT (9 h): 18.5 s
Bas (9 h): 0%
Eos (9 h): 1%
Fbg (9 h): 291.8 mg/dL
Hb (9 h): 13.1 g/dL
Ht (9 h): 39.5%
Lym (9 h): 77.2%
MCH (9 h): 20.9 pg
MCHC (9 h): 33.3%
MCV (9 h): 62.8 fL
Mono (9 h): 2%
Neu (9 h): 19.6%
PT (9 h): 14.3 s
Plat (9 h): 110.2 x10_4/uL
RBC (9 h): 628.8 x10_4/ul
Ret (9 h): 8.1%
WBC (9 h): 59.9 x10_2/uL
KIDNEY_L (9 h): 0.9 g
KIDNEY_R (9 h): 0.9 g
KIDNEY_TOTAL (9 h): 1.9 g
LIVER (9 h): 8.1 g
A/G (9 h): 0.9
ALP (9 h): 1396.8 IU/L
ALT (9 h): 31 IU/L
AST (9 h): 68.4 IU/L
BUN (9 h): 8.4 mg/dL
CRE (9 h): 0.2 mg/dL
Ca (9 h): 10.4 mg/dL
Cl (9 h): 107.2 meq/L
DBIL (9 h): 0.028 mg/dL
GLC (9 h): 182 mg/dL
IP (9 h): 10.3 mg/dL
K (9 h): 4.3 meq/L
LDH (9 h): 68.6 IU/L
Na (9 h): 142.8 meq/L
PL (9 h): 136.8 mg/dL
RALB (9 h): 2.5 g/dL
TBIL (9 h): 0.062 mg/dL
TC (9 h): 77.2 mg/dL
TG (9 h): 29.2 mg/dL
TP (9 h): 5.4 g/dL
gamma-GTP (9 h): 1.2 IU/L
TERMINAL_BW (24 h): 223.3 g
APTT (24 h): 19.1 s
Bas (24 h): 0%
Eos (24 h): 1%
Fbg (24 h): 303 mg/dL
Hb (24 h): 13.3 g/dL
Ht (24 h): 40%
Lym (24 h): 76.8%
MCH (24 h): 20.9 pg
MCHC (24 h): 33.3%
MCV (24 h): 62.9 fL
Mono (24 h): 3.4%
Neu (24 h): 18.4%
PT (24 h): 14.2 s
Plat (24 h): 121.5 x10_4/uL
RBC (24 h): 636.4 x10_4/ul
Ret (24 h): 7.7%
WBC (24 h): 109.1 x10_2/uL
KIDNEY_L (24 h): 1 g
KIDNEY_R (24 h): 1 g
KIDNEY_TOTAL (24 h): 1.9 g
LIVER (24 h): 10.8 g
A/G (24 h): 0.9
ALP (24 h): 1683.6 IU/L
ALT (24 h): 38.8 IU/L
AST (24 h): 67 IU/L
BUN (24 h): 15.4 mg/dL
CRE (24 h): 0.2 mg/dL
Ca (24 h): 11.1 mg/dL
Cl (24 h): 104.8 meq/L
DBIL (24 h): 0.02 mg/dL
GLC (24 h): 176.6 mg/dL
IP (24 h): 7.7 mg/dL
K (24 h): 4.1 meq/L
LDH (24 h): 62.6 IU/L
Na (24 h): 143.8 meq/L
PL (24 h): 171.2 mg/dL
RALB (24 h): 2.7 g/dL
TBIL (24 h): 0.05 mg/dL
TC (24 h): 89.2 mg/dL
TG (24 h): 112.8 mg/dL
TP (24 h): 5.7 g/dL
gamma-GTP (24 h): 1 IU/L
